Patent publication US10907168B2, “Jasmonic acid pathway activator” (MEDICAGO INC., priority 2015, dated 2021)

Legend:
[1] = system: A. tumefaciens VirE1; assay: Real-time RT PCR of VirE1 transcripts in agroinfiltrated leaves; type: in vivo, Agrobacterium tumefaciens; conditions: 1 mM, seven days post-treatment
Procedure: mRNA transcripts for C5-1 and A. tumefaciens virulence proteins VirB1 and VirE1 were assayed by real-time RT PCR using an ABI PRISM 7500 Fast real-time PCR apparatus, system version 2.0.1 (Applied Biosystems, Carlsbad Calif., U.S.A.). Total RNA was extracted from two 1-cm^2 leaf discs collected on the third main stem leaf (Robert et al., 2013) using the Qiagen RNeasy plant mini kit (Qiagen), following the supplier's instructions. RNA samples were treated with DNase I (Roche Diagnostics) to remove contaminant DNA and assessed for quality and quantity using a Nanodrop® ND-1000 spectrophotometer (NanoDrop Technologies, Wilmington Del., USA). First-strand cDNA was synthesized from 500 ng of total RNA using 4 units of Omniscript reverse transcriptase (Qiagen) and 1 μM of oligo-dT (15) nucleotides (Roche). PCR reactions contained 10 μl of Fast SYBR Green PCR Master Mix (Applied Biosystems), 2 μl of cDNA template, and 2.5 μl each of appropriate forward and reverse primers at 625 nM final concentration (Table 1). A no-template mixture control was included in each 96-well plate. Amplification rounds consisted of a 20-s denaturation step at 95° C., followed by 40 two-step cycles of 3 s at 95° C. and 30 s at 60° C. […]

[2] = system: RuBisCO large and small subunit; assay: RuBisCO large and small subunit levels, immunodetection and densitometry; type: in vivo, Nicotiana benthamiana; conditions: for depletion of RuBisCO large and small subunit pools, less than in controls: uninfiltrated leaves, seven days post-treatment
Procedure: FIGS. 1a-1d show total soluble proteins (TSP), 1-D proteome profile and RuBisCO subunit levels in agroinfiltrated and control N. benthamiana leaves treated with the stress elicitor MeJA 24 h before infection. […] FIGS. 1c and 1d show relative amounts of RuBisCO large (RbcL; FIG. 1c) and small (RbsS; FIG. 1d) subunits in MeJA-treated leaves as determined by densitometry following immunodetection with appropriate antibodies. Protein signals on the immunoblots were quantified using the Phoretix 2-D Expression software v. 2005 (NonLinear USA, Durham N.C., U.S.A.) after scanning nitrocellulose membranes with a Microtek ScanMaker II digitalizer (Microtek Laboratory, Torrance Calif., U.S.A.). Data are expressed as relative levels compared to non-treated controls assigned an arbitrary level of 1.0. Each bar on panels (a) and (c) is the mean of three independent (leaf replicate) values±SE. Infiltrated leaves were transfected with A. tumefaciens cells 24 h post-MeJA treatment. All plant samples were harvested seven days post-MeJA treatment (i.e. six days post-agroinfiltration for the transfected plants).
Forty-two day-old N. benthamiana plants grown in greenhouse were used for the experiments. Each plant was sprayed evenly with 50 ml of 0.5 mM, 1 mM or 2 mM MeJA in water containing 0.1% (v/v) Triton X-100 (Sigma-Aldrich, Mississauga ON, Canada), or with 50 ml of 1 mM arachidonic acid (Girard et al., 2007) in the same solvent, and transferred for seven days in a Conviron growth chamber (Conviron, Winnipeg MB, Canada). Plants sprayed with 50 ml of 0.1% (v/v) Triton X-100 in water were used in parallel as negative controls to avoid confounding effects due to experimental conditions. Two or three 1-cm^2 leaf discs were harvested from the third main stem leaf (see Robert et al., 2013) after seven days, as source material for protein and RNA extraction. The leaf samples were frozen immediately in liquid nitrogen and stored at −80° C. until protein or RNA extraction. Three to five biological (plant) replicates were used for each treatment, to allow for statistical treatment of the data. […]

[3] = system: cathepsin D/E-like A1 Asp proteases; assay: Protease assay in leaf crude extracts, MOCAc substrate; type: in vivo, Nicotiana benthamiana; conditions: seven days post-treatment
[4] = system: C5-1 antibody; assay: C5-1 antibody immunodetection after non-reducing SDS-PAGE; type: in vivo, Nicotiana benthamiana; conditions: agroinfiltrated leaves; treated 24 h before infiltration; 35S-type C5-1 vector

With `CC/C=C\C[C@H]1C(=O)CC[C@@H]1CC(=O)OC` [MeJA, methyl jasmonate] the “VirE1 transcription versus control leaves” value [1] was “no positive effect”, the “depletion of RuBisCO large and small subunit pools, less than in controls” value ([2]; 0.5 mM dose) was roughly 40% and the “depletion of RuBisCO large and small subunit pools, less than in controls” value ([2]; 2 mM dose) was “more than 90%”. The “RuBisCO large and small subunits, share of original content relative to untreated plants” value ([2]; agroinfiltrated leaves (empty vector, 24 h post-treatment), 1 or 2 mM, six days post-infection) was “less than 50%”, the “cathepsin D/E-like activity” value ([3]; agroinfiltrated leaves) was “also observed in agroinfiltrated leaves” and the “cathepsin D/E-like activity” value ([3]; uninfiltrated plants, P<0.001) was “dose-dependent decrease”. For the same molecule, the “C5-1 protein band patterns on immunoblot compared to control plants” value [4] was “increased intensity”.
